Results on six compounds are retold here after patent US12161669B2, “Compositions and methods for cell targeting therapies” (UMC UTRECHT HOLDING B.V., priority 2017, dated 2024).

One assay has as its target T1, RhoB GTPase (Homo sapiens, UniProt P62745).
T1 construct: The full length RhoB protein was cloned into the pET 28a vector; thrombin cleavage site (C); made in house; host or cells: Escherichia coli BL21
Nature of the assay: Biolayer interferometry of RhoB binding to BTN3A1 (CD277) intracellular domains. Particulars: for kd (1/s) / kd(1/Ms) / Kd: BLI, 1:1 binding model; for Kd: RhoB immobilized on Ni-NTA biosensor, cHDMAPP at 1:1 where named; for RhoB binding to recombinant CD277 intracellular domain constructs: without phosphoantigen. As for the experimental part:
To determine whether CD277 exists as a homodimer when expressed in a cellular context, and to study RhoB-CD277 interactions at even higher resolution, close interactions by utilizing fluorescence resonance energy transfer (FRET) were examined. Flow cytometry FRET measurements were performed on ABP-sensitive HEK 293 cells, by either overexpressing FRET compatible fusion proteins or labeling endogenous proteins with antibodies coupled to FRET-compatible fluorochromes. […] Biolayer Interferometry (BLI) was used to formally define a possible docking site for RhoB on the intracellular domain of CD277.
The interactions between RhoB and BTN3A1 full-length intracellular domain (BFI) or BTN3A1 B30.2 domain were measured using Biolayer interferometry (BLItz, FortéBio). The BLI buffer used in baseline equilibration and the dissociation step was prepared with 10 mM Hepes pH7.2, 150 mM NaCl, 0.02% azide, 5 mM MgCl2, 4 mM BME. RhoB, at a concentration of 2 mg/ml, was immobilized on the Ni-NTA biosensor hydrated with the BLI buffer using the basic kinetics method with the following parameters: 30 s for baseline, 300 s for association and 300 s for dissociation. The RhoB-mounted biosensor was then blocked by 1 mg/ml BSA and equilibrated with the BLI buffer using a similar method with the following parameters: 30 s for baseline, 120 s for association and 120 s for dissociation. The buffer run served as a reference for the subsequent experiments. […] The ratio between cHDMAPP and BFI or B30.2 domain was kept at 1:1 for these measurements. The rate and affinity constants for binding interactions were analyzed by Biaevulation (Biacore Life Sciences). The data was truncated to 180 s and the ka and kd were fitted simultaneously using 1:1 binding with drift baseline model.

The subject of a further assay is CD277 and F-actin. The assay is described as follows: Colocalization of CD277 and F-actin in HEK 293 cells. It counts as cell-based. On the procedure: To determine colocalization between BTN3 molecules and the actin cytoskeleton, HEK 293 cells were grown onto poly-L-lysin-coated coverslips and pretreated with either calpeptin (2 μg/ml) or C3 transferase (20 μg/ml) prior to treating samples with pamidronate Cells were fixed, permeabilized and BTN3 and F-actin were stained with DyLight 680-conjugated BTN3 antibody (clone BT3.1, Novus Biologicals) and Fluorescein-coupled phalloidin (Sigma), respectively. The correlation coefficient between BTN3 and F-actin signal was determined as a measure of colocalization using Volocity software.

Assay [1] relates to CD277. The assay is described as follows: FRAP of CD277-emGFP membrane mobility in HEK 293 cells. The format is cell-based. Particulars: 293 HEK cells; for CD277 membrane mobility (immobile fraction, FRAP): single agent. As for the experimental part: FRAP analysis was performed as previously described (Harly et al., 2012, Sandstrom et al., 2014). In brief, HEK293FT cells expressing either EmGFP-fused CD277 were laid on m-slides (Ibidi) and analyzed using a Nikon A1 RS confocal microscope (60×NA 1.40 oil immersion objective). Selected rectangular areas were photobleached for 500 ms by using full power of laser intensity (>90% of loss of fluorescence). Images were collected every 5 s, before (30 s) and after (120 s) bleaching using low laser intensity. Images were analyzed with Metamorph 7.5 (Molecular Devices, Universal Imaging) and NIS (Nikon) imaging software. The resulting curves were fitted using one-phase exponential equations.

The next assay concerns EBV-LCL 93 cells. Nature of the assay: IFNγ by Vγ9Vδ2 TCR+ T cells against Rho-modulator pretreated EBV-LCL 93. Particulars: target cell pretreatment with Rho activator, in combination with pamidronate or IPP. The format is cell-based. On the procedure: (§1) The impact of RhoB GTPase activity on Vγ9Vδ2 TCR+ T cell activation was assessed by […] different tumor cell lines with either the Rho GTPase activator calpeptin or inhibitor C3 transferase. […] To specify that enzymatic activity of RhoB regulates tumor cell recognition by Vγ9Vδ2 TCR+ T cells, we transfected HEK 293 cells with wildtype or dominant negative form corresponding to the GDP-bound state (RhoB-DN), or with the constitutively active form corresponding to the GTP-bound form (RhoB-CA) of RhoB (Kamon et al., 2006) and used them as target cells for Vγ9Vδ2 TCR+ T cells (FIG. 4E).
(§2) Alternatively, Vγ9Vδ2 TCR-transduced T cells and target cells were cocultured as above in round-bottom 96-well plates, and IFNγ levels in supernatants were measured by ELISA. Where indicated, target cells were pretreated with pamidronate (100 μM), IPP (15 μM), FTI (10 μM), GGTI (50 μM), calpeptin (2 μg/ml) or C3 transferase (20 μg/ml) prior to coincubation. For testing stimulation of WT1 αβTCR-transduced T cells, the HLA-A2+ cell lines EBV-LCL 48 and MZ1851RC were pulsed with 10 μM WT1126−134 peptide.

In assay [2] the test system is CD277. The assay is described as follows: Flow cytometry FRET between BODIPY FL-stained membrane and anti-CD277 mAbs (CD277 conformational change), HEK 293 cells. It counts as cell-based. Particulars: with ABP. As for the experimental part: Conformational change of BTN3 molecule was determined similarly as described in ([…] et al., 2001). Cells were labeled with 5 ug/ml BODIPY-FL DPHE (donor) (Life Technologies) for 10 minutes on ice and then 10 minutes at 37 C, then washed extensively with ice-cold PBS. Cells were subsequently labeled with mouse anti-CD277 mAbs (either clone #20.1 or #103.2) and Alexa594-conjugated Goat anti-Mouse Fab fragments (Jackson ImmunoResearch). After washing, cells were resuspended in ice cold PBS and measured immediately using a FACS Canto-II flowcytometer (BD). FRET efficiency was calculated from the fractional decrease of the donor fluorescence in the presence of the acceptor.

The test system of a further assay is LCL 48 cells. Nature of the assay: IFNγ by Vγ9Vδ2 TCR+ T cells against Rho-modulator pretreated EBV-LCL 48. The format is cell-based. Particulars: target cell pretreatment with Rho inhibitor, in combination with pamidronate or IPP. On the procedure:
as §1, §2

T1 sequence (O00481 272-513 partner limits assumed): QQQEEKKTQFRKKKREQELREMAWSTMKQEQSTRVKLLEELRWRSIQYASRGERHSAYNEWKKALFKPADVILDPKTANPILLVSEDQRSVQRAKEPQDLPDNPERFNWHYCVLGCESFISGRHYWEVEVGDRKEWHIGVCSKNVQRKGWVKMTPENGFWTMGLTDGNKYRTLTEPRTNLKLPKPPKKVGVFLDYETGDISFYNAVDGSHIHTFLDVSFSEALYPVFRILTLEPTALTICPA
T1 sequence (P62745 1-192 limits assumed): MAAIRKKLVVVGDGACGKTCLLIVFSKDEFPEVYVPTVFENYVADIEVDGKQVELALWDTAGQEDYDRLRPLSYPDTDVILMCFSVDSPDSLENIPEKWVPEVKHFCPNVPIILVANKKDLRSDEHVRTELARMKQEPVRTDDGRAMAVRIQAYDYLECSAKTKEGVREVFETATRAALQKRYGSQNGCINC

For `C/C(=C\CCP(=O)(O)OP(=O)(O)O)CO` [cHDMAPP, (2E)-1-hydroxy-2-methylpent-2-enyl-pyrophosphonate], the “RhoB binding to BFI in the presence of soluble phosphoantigen” value at RhoB GTPase (phosphoantigen 1:1 with BFI) is recorded as “almost completely abolished”.

For the compound `CCCC[C@@H](C=O)NC(=O)[C@H](CC(C)C)NC(=O)OCc1ccccc1` [calpeptin], the “colocalization between CD277 and F-actin” value with CD277 and F-actin (single agent vs medium) was “reduced tantalization between CD277 and F-actin to comparable levels observed with ABP treatment”. The “CD277 membrane mobility (immobile fraction, FRAP)” value in the assay with CD277 [1] is “induced immobilization of CD277 to similar levels as those of ABP treatment alone”. Further, the “recognition of EBV-LCL 93 cells by Vγ9Vδ2 TCR+ T cells (IFNγ)” value in the assay on EBV-LCL 93 cells is recorded as “significantly sensitized”.

Regarding `O=P(O)(O)C(O)(Cn1ccnc1)P(=O)(O)O` [zoledronate, zoledronic acid monohydrate], the “CD277 membrane mobility (immobile fraction, FRAP)” value with CD277 [1] is “decreased CD277 membrane mobility”.

Regarding C3 transferase, in the assay on CD277 and F-actin (pretreatment before pamidronate), the “effect on ABP-induced CD277-actin segregation” value was “prevented ABP-induced CD277-actin segregation”. Moreover, the “effect on ABP-induced immobilization of CD277” value with CD277 [1] (together with zoledronate) is given as “counteracted this ABP-effect”. Moreover, in the assay with CD277 [2], the “effect on ABP-driven conformational changes of the CD277 homodimer” value is reported as “did not prevent”. The “activation of Vγ9Vδ2 TCR+ T cells by LCL 48 cells (IFNγ)” value with LCL 48 cells is on record as “significantly reduced activation”.

As to “RhoB-B30.2: interaction of RhoB with recombinant CD277 B30.2 domain lacking the N terminal connector region”, in the assay with RhoB GTPase, the “kd (1/s)” value was found to be 0.206 s⁻¹, the “kd(1/Ms)” value stood at 2020 M⁻¹ s⁻¹, the Kd amounted to 102 µM and the “RhoB binding to recombinant CD277 intracellular domain constructs” value was “significantly reduced”.

With “RhoB-BFI: interaction of RhoB GTPase with recombinant full length BTN3A1 intracellular domain (BFI)”, in the assay with RhoB GTPase, the “kd (1/s)” value was 0.04351 s⁻¹, the “kd(1/Ms)” value came out at 2200 M⁻¹ s⁻¹, the Kd amounted to 19.7 µM and the “RhoB binding to recombinant CD277 intracellular domain constructs” value is “detected”.
